Some test systems named below: NCI-H226; HOP-92; DU-145; MDA-MB-231; NCI-H23; SW-620; RXF 393; T47D; LOX IMVI; OVCAR-4; MOLT-4; SN12C; PC-3; HL-60; COLO 205; K562; SF-268; U-251; ACHN; HCT-116.
Experiment in all cases: growth of human tumour cells (NCI), 48 h

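Five compound concentrations were applied to cells in 96-well plates for 48 hours; endpoints were derived by simple linear interpolation of the resulting dose-response curve. The concentration for 50% growth inhibition is given as GI50.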 Active and inactive are the calls of the source. No stated cut-off is given here; in the data, active = GI50 up to about 1.1 µM and inactive = higher.

`O=C(Nc1ccc(Br)cc1)c1c(-c2ccccc2)c2ccc(O)cc2oc1=O`: the GI50 in the assay with NCI-H226, in the assay with HOP-92, with DU-145, with MDA-MB-231, in the assay with NCI-H23 and in the assay on SW-620 was > 10 µM (inactive) in each case. For the same compound, the GI50 in the assay on RXF 393, in the assay on T47D, in the assay with LOX IMVI, in the assay with OVCAR-4, with MOLT-4 and with SN12C was > 10 µM (inactive) each time. For the same compound, the GI50 in the assay on PC-3, in the assay on HL-60, with COLO 205, with K562, in the assay with SF-268 and in the assay with U-251 was > 10 µM (inactive) in each case. For the same compound, the GI50 with ACHN is > 10 µM (inactive).

For the compound `Nc1nc(Cl)c(Cl)c(NCC2(O)CCC2)n1`, the GI50 is 23.6 µM (inactive) with NCI-H226; 29.1 µM (inactive) in the assay on HOP-92; > 100 µM (inactive) in the assay with DU-145; 74.1 µM (inactive) with MDA-MB-231; 38.9 µM (inactive) in the assay on NCI-H23; > 100 µM (inactive) in the assay with SW-620. For the same compound, the GI50 is 38.4 µM (inactive) in the assay with RXF 393; 2.76 µM (inactive) in the assay on T47D; 28.5 µM (inactive) in the assay on LOX IMVI; 19 µM (inactive) with OVCAR-4; 33 µM (inactive) in the assay with MOLT-4; > 100 µM (inactive) with SN12C. The GI50 was > 100 µM (inactive) in the assay with PC-3; 44 µM (inactive) with HL-60; 24.7 µM (inactive) in the assay on K562; 57.3 µM (inactive) with HCT-116; > 100 µM (inactive) with SF-268; 92.7 µM (inactive) in the assay with U-251. For the same compound, the GI50 with ACHN was > 100 µM (inactive).

For the compound `COc1cc2cc(C(=O)N3CC(CCl)c4ccc([N+](C)(C)Cc5ccc([N+](=O)[O-])cc5)cc43)[nH]c2c(OC)c1OC` (stereo not given), the GI50 with NCI-H226 was 2.82 µM (inactive); in the assay on HOP-92, 2.52 µM (inactive); in the assay with DU-145 it was 3.05 µM (inactive); in the assay on MDA-MB-231 it was 7.55 µM (inactive); with NCI-H23, 1.77 µM (inactive); with SW-620, 1.5 µM (inactive). For the same compound, the GI50 was 1.36 µM (inactive) in the assay with RXF 393; 3.48 µM (inactive) in the assay on T47D; 3.09 µM (inactive) with OVCAR-4; 2.1 µM (inactive) with MOLT-4; 4.55 µM (inactive) with SN12C; 2.09 µM (inactive) in the assay with PC-3. Further, the GI50 in the assay with HL-60 is 2.04 µM (inactive); in the assay with COLO 205 it was 3.25 µM (inactive); in the assay with K562, 1.92 µM (inactive); in the assay on HCT-116, 1.83 µM (inactive); in the assay with SF-268, 3.39 µM (inactive); with U-251, 2.71 µM (inactive). For the same compound, the GI50 with ACHN was 2.29 µM (inactive).

With `C[C@@H](c1ccccc1)N1C[C@@H](c2ccc3c(c2)OCO3)[C@@H]2C(=O)CCC[C@@H]21`, the GI50 with NCI-H226 is > 100 µM (inactive); with HOP-92 it was 47.1 µM (inactive); with DU-145 it was > 100 µM (inactive); in the assay on MDA-MB-231 it was 63.8 µM (inactive); with NCI-H23 it was 61.8 µM (inactive); with RXF 393 it was 88.5 µM (inactive). Besides, the GI50 in the assay on T47D is 37.3 µM (inactive); in the assay on LOX IMVI, 69 µM (inactive); in the assay on OVCAR-4 it was 43.8 µM (inactive); in the assay with MOLT-4, 30.3 µM (inactive); in the assay on SN12C it was 59.8 µM (inactive); with PC-3 it was 59.2 µM (inactive). Moreover, the GI50 with HL-60 is 34.1 µM (inactive); in the assay on COLO 205 it was 20.6 µM (inactive); in the assay on K562, 64.1 µM (inactive); in the assay with HCT-116 it was 43.8 µM (inactive); in the assay on SF-268, 96.8 µM (inactive); in the assay on U-251 it was 66.5 µM (inactive). Also, the GI50 in the assay on ACHN is 35.2 µM (inactive).

For `CC(=O)OCC1OC(SC2=N/C(=C\c3cc4c(=O)c5ccccc5sc4s3)C(=O)N2c2ccccc2)C(OC(C)=O)C(OC(C)=O)C1OC(C)=O` (stereo not given), the GI50 in the assay on NCI-H226 is > 100 µM (inactive); in the assay with DU-145, > 100 µM (inactive); in the assay on MDA-MB-231, 58.2 µM (inactive); in the assay on NCI-H23 it was > 100 µM (inactive); with SW-620, 67.8 µM (inactive); in the assay with RXF 393, 81.5 µM (inactive). Moreover, the GI50 was > 100 µM (inactive) in the assay with T47D; 55.1 µM (inactive) in the assay on LOX IMVI; 74.3 µM (inactive) in the assay with OVCAR-4; 20.6 µM (inactive) in the assay on MOLT-4; > 100 µM (inactive) in the assay on SN12C; > 100 µM (inactive) with PC-3. Also, the GI50 is 20.1 µM (inactive) in the assay on HL-60; > 100 µM (inactive) in the assay with COLO 205; 53.1 µM (inactive) in the assay on K562; 37.6 µM (inactive) in the assay with HCT-116; > 100 µM (inactive) with SF-268; 23.9 µM (inactive) in the assay with U-251. In addition, the GI50 in the assay with ACHN was > 100 µM (inactive).

For `COc1ccc2nc(-c3ccccc3)c(=O)[nH]c2c1`, the GI50 in the assay on NCI-H226, with HOP-92, with DU-145, in the assay with MDA-MB-231, in the assay on NCI-H23 and in the assay on SW-620 was > 100 µM (inactive) each time. Further, the GI50 in the assay on RXF 393, with T47D, in the assay with LOX IMVI, in the assay on MOLT-4, with SN12C and in the assay with PC-3 was > 100 µM (inactive) throughout. Further, the GI50 in the assay on HL-60, in the assay on COLO 205, with K562, in the assay with HCT-116, in the assay on SF-268 and in the assay on ACHN was > 100 µM (inactive) each time.

Regarding `Cc1cc(Cl)ccc1C(=O)c1ccc2ccccc2c1C(=O)O`, the GI50 with NCI-H226, in the assay on HOP-92, in the assay on DU-145, in the assay on MDA-MB-231, in the assay with NCI-H23 and with SW-620 was > 100 µM (inactive) each time. Moreover, the GI50 in the assay with RXF 393 was 39.6 µM (inactive); in the assay with T47D, > 100 µM (inactive); in the assay with OVCAR-4, > 100 µM (inactive); with MOLT-4, > 100 µM (inactive); in the assay with PC-3 it was > 100 µM (inactive); with HL-60, > 100 µM (inactive). The GI50 in the assay on COLO 205, in the assay with K562, with HCT-116, in the assay on SF-268, with U-251 and in the assay with ACHN was > 100 µM (inactive) throughout.

With `COc1ccc2c(c1)[C@@]13CCN4CC5=CCO[C@H]6CC(=O)N2[C@H]1[C@H]6[C@H]5C[C@H]43`, the GI50 with NCI-H226 was 0.178 µM (active); in the assay with HOP-92, 95.7 µM (inactive); in the assay on DU-145, > 100 µM (inactive); in the assay on MDA-MB-231, > 100 µM (inactive); with NCI-H23 it was > 100 µM (inactive); in the assay on SW-620 it was > 100 µM (inactive). Also, the GI50 with RXF 393 was > 100 µM (inactive); in the assay with T47D, > 100 µM (inactive); in the assay on LOX IMVI, > 100 µM (inactive); in the assay with OVCAR-4, > 100 µM (inactive); in the assay with MOLT-4 it was 18.6 µM (inactive); in the assay on SN12C, > 100 µM (inactive). The GI50 with PC-3 is > 100 µM (inactive); in the assay on HL-60, 18.1 µM (inactive); in the assay on COLO 205 it was 84.9 µM (inactive); in the assay with HCT-116, > 100 µM (inactive); in the assay on SF-268, > 100 µM (inactive); with U-251 it was > 100 µM (inactive). In the assay on ACHN, the GI50 was > 100 µM (inactive).

For the compound `O=c1oc2cccnc2n1CCN1CCN(c2ccc(Oc3ccccc3)cc2)CC1`, the GI50 was 57.3 µM (inactive) in the assay with HOP-92; > 100 µM (inactive) in the assay on DU-145; > 100 µM (inactive) in the assay on MDA-MB-231; > 100 µM (inactive) with NCI-H23; > 100 µM (inactive) in the assay on SW-620; > 100 µM (inactive) in the assay on RXF 393. Further, the GI50 in the assay with T47D was 10.4 µM (inactive); in the assay on LOX IMVI, > 100 µM (inactive); with OVCAR-4, 15.7 µM (inactive); in the assay on MOLT-4 it was 19.7 µM (inactive); with PC-3, 34.4 µM (inactive); in the assay on HL-60, 8.04 µM (inactive). Moreover, the GI50 in the assay with K562 was 12.4 µM (inactive); in the assay on HCT-116, 33.6 µM (inactive); in the assay on SF-268, > 100 µM (inactive); in the assay with U-251, 56.9 µM (inactive); with ACHN, 35 µM (inactive).

As for `O=C1/C(=C/c2c(Cl)[nH]c3ccccc23)c2ccccc2N1c1ccccc1`, the GI50 in the assay on HOP-92 is 9.44 µM (inactive); in the assay with DU-145 it was 7.43 µM (inactive); in the assay on MDA-MB-231, 6.4 µM (inactive); with NCI-H23 it was 5.32 µM (inactive); with SW-620, 5.15 µM (inactive); with RXF 393, 11.9 µM (inactive). Besides, the GI50 is 3.37 µM (inactive) in the assay with T47D; 3.66 µM (inactive) in the assay on LOX IMVI; 4.22 µM (inactive) with MOLT-4; 6.19 µM (inactive) with SN12C; 4.28 µM (inactive) with PC-3; 3.01 µM (inactive) in the assay on HL-60. Further, the GI50 is 1.79 µM (inactive) in the assay with COLO 205; 4.1 µM (inactive) in the assay with K562; 4.6 µM (inactive) with HCT-116; 5.52 µM (inactive) in the assay on SF-268; 5.05 µM (inactive) in the assay on U-251; 7.01 µM (inactive) in the assay with ACHN.
